Reference: patent US9149038B2, “4-amino-6-(heterocyclic)picolinates and 6-amino-2-(heterocyclic)pyrimidine-4-carboxylates and their use as herbicides” (Dow AgroSciences LLC, priority 2013, dated 2015)
Like-named read-outs stand apart in the source and are kept apart here.

Test system: Wheat and Barley and weed species
Assay: Post-Emergent Test III: postemergent herbicidal activity in wheat and barley, visual rating after 21 d and probit GR20/GR50/GR80/GR90 (Tables 9-13)
Format: in vivo
Conditions: for pest or weed control at 17.5 g/ha / pest or weed control at 35 g/ha / pest or weed control at 70 g/ha: post-emergence, 504 h
Outline: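 Greenhouse plants (~18/17 °C, 14 h photoperiod) at second–third true leaf stage sprayed at 187 L/ha with a high rate and ½× to 1/16× serial dilutions. Visual injury 0–100% versus solvent-blank controls scored at 21 d; GR20, GR50, GR80 and GR90 derived by probit analysis across rates.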

COC(=O)c1nc(-c2cc3c(cc2F)OC(F)(F)O3)cc(N)c1Cl [Compound 32]
GR50 ALOMY (ALOMY black-grass (Alopecurus myosuroides), growth reduction of 50%, probit analysis): 5 g ai/ha
GR80 ALOMY (ALOMY black-grass (Alopecurus myosuroides), growth reduction of 80%, probit analysis): 12 g ai/ha
GR90 ALOMY (ALOMY black-grass (Alopecurus myosuroides), growth reduction of 90%, probit analysis): 18 g ai/ha
Visual Growth Reduction (%) 21 Days After Application AVEFA (AVEFA wild oat (Avena fatua), 17.5 g ai/ha): E (45-59)
Visual Growth Reduction (%) 21 Days After Application AVEFA (AVEFA wild oat (Avena fatua), 35 g ai/ha): D (60-74)
Visual Growth Reduction (%) 21 Days After Application AVEFA (AVEFA wild oat (Avena fatua), 70 g ai/ha): D (60-74)
GR50 AVEFA (AVEFA wild oat (Avena fatua), growth reduction of 50%, probit analysis): 31 g ai/ha
GR80 AVEFA (AVEFA wild oat (Avena fatua), growth reduction of 80%, probit analysis): >70 g ai/ha
GR90 AVEFA (AVEFA wild oat (Avena fatua), growth reduction of 90%, probit analysis): >70 g ai/ha
GR20 HORVS (HORVS barley, spring (crop), growth reduction of 20%, probit analysis): 3 g ai/ha
pest or weed control at 17.5 g/ha (Hordeum vulgare, HORVS barley, spring (crop), 17.5 g ai/ha, read-out: Visual Growth Reduction (%) 21 Days After Application HORVS): 45 to 59%
pest or weed control at 35 g/ha (Hordeum vulgare, HORVS barley, spring (crop), 35 g ai/ha, read-out: Visual Growth Reduction (%) 21 Days After Application HORVS): 60 to 74%
pest or weed control at 70 g/ha (Hordeum vulgare, HORVS barley, spring (crop), 70 g ai/ha, read-out: Visual Growth Reduction (%) 21 Days After Application HORVS): 60 to 74%
GR50 LOLSS (LOLSS ryegrass, growth reduction of 50%, probit analysis): 54 g ai/ha
GR80 LOLSS (LOLSS ryegrass, growth reduction of 80%, probit analysis): >70 g ai/ha
GR90 LOLSS (LOLSS ryegrass, growth reduction of 90%, probit analysis): >70 g ai/ha
Visual Growth Reduction (%) 21 Days After Application PHAMI (PHAMI lesser canary grass (Phalaris minor), 17.5 g ai/ha): G (0-29)
Visual Growth Reduction (%) 21 Days After Application PHAMI (PHAMI lesser canary grass (Phalaris minor), 35 g ai/ha): F (30-44)
Visual Growth Reduction (%) 21 Days After Application PHAMI (PHAMI lesser canary grass (Phalaris minor), 70 g ai/ha): E (45-59)
GR50 PHAMI (PHAMI lesser canary grass (Phalaris minor), growth reduction of 50%, probit analysis): 65 g ai/ha
GR80 PHAMI (PHAMI lesser canary grass (Phalaris minor), growth reduction of 80%, probit analysis): >70 g ai/ha
GR90 PHAMI (PHAMI lesser canary grass (Phalaris minor), growth reduction of 90%, probit analysis): >70 g ai/ha
GR20 TRZAS (TRZAS wheat, spring (crop), growth reduction of 20%, probit analysis): 1 g ai/ha
pest or weed control at 17.5 g/ha (Triticum aestivum, TRZAS wheat, spring (crop), 17.5 g ai/ha, read-out: Visual Growth Reduction (%) 21 Days After Application TRZAS): 60 to 74%
pest or weed control at 35 g/ha (Triticum aestivum, TRZAS wheat, spring (crop), 35 g ai/ha, read-out: Visual Growth Reduction (%) 21 Days After Application TRZAS): 60 to 74%
pest or weed control at 70 g/ha (Triticum aestivum, TRZAS wheat, spring (crop), 70 g ai/ha, read-out: Visual Growth Reduction (%) 21 Days After Application TRZAS): 75 to 84%
pest or weed control at 17.5 g/ha (ALOMY black-grass (Alopecurus myosuroides), 17.5 g ai/ha, read-out: Visual Growth Reduction (%) 21 Days After Application ALOMY): 85 to 94%
pest or weed control at 35 g/ha (ALOMY black-grass (Alopecurus myosuroides), 35 g ai/ha, read-out: Visual Growth Reduction (%) 21 Days After Application ALOMY): 95 to 100%
pest or weed control at 70 g/ha (ALOMY black-grass (Alopecurus myosuroides), 70 g ai/ha, read-out: Visual Growth Reduction (%) 21 Days After Application ALOMY): 95 to 100%
pest or weed control at 17.5 g/ha (LOLSS ryegrass, 17.5 g ai/ha, read-out: Visual Growth Reduction (%) 21 Days After Application LOLSS): 0 to 29%
pest or weed control at 35 g/ha (LOLSS ryegrass, 35 g ai/ha, read-out: Visual Growth Reduction (%) 21 Days After Application LOLSS): 30 to 44%
pest or weed control at 70 g/ha (LOLSS ryegrass, 70 g ai/ha, read-out: Visual Growth Reduction (%) 21 Days After Application LOLSS): 60 to 74%
